Patent publication US10294202B2, “Pyrrolidinones as herbicides” (FMC Corporation, priority 2013, dated 2019)

How the values were obtained:
kochia = assay: Test A pre-/postemergence herbicide test; assay type: in vivo, Kochia scoparia; conditions: for Plant response rating, Kochia: 0 to 100 scale
Procedure, shortened: (§1)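 Visual injury ratings, 0 = no effect, 100 = complete control, taken ~10 days after treatment against untreated greenhouse controls. Preemergence: directed soil spray onto seeded loam/sand pots. Postemergence: spray onto plants at one- to two-leaf stage, 2–10 cm tall.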

ryegrass, Italian = assay: Test A pre-/postemergence herbicide test; assay type: in vivo, Lolium multiflorum; conditions: for Plant response rating, Ryegrass, Italian: 0 to 100 scale
Procedure, shortened: as §1

rice = assay: Test B flooded paddy test; assay type: in vivo, Oryza sativa; conditions: Flood, scale of 0 to 100 where 0 is no effect and 100 is complete control
Procedure, shortened: (§2)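 Plants were grown to the 2-leaf stage, then pots were flooded to 3 cm above the soil and compound was applied directly into the paddy water, with that depth held throughout. After 13 to 15 days in a greenhouse, injury was rated visually against untreated controls on a 0 to 100 scale (100 = complete control).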

corn = assay: Test A pre-/postemergence herbicide test; assay type: in vivo, Zea mays; conditions: Postemergence; for Plant response rating, Corn: 125 g ai/ha, 0 to 100 scale, 0 is no effect, 100 is complete control; for Corn plant response rating (0 to 100 scale, 0 is no effect, 100 is complete control): 500 g ai/ha
Procedure, shortened: as §1

ragweed = assay: Test A pre-/postemergence herbicide test; assay type: in vivo, Ambrosia elatior; conditions: for Plant response rating, Ragweed: 0 to 100 scale
Procedure, shortened: as §1

blackgrass = assay: Test A postemergence herbicide test; assay type: in vivo, Alopecurus myosuroides; conditions: for Plant response rating, Blackgrass: 125 g ai/ha, 0 to 100 scale, 0 is no effect, 100 is complete control; for Blackgrass plant response rating (0 to 100 scale, 0 is no effect, 100 is complete control): 500 g ai/ha
Procedure, shortened: (§3)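 Blackgrass and galium grown in pots of loam soil–sand blend, treated postemergence at 2–10 cm height, one- to two-leaf stage. Plants kept in greenhouse ~10 days, then visually rated for injury against untreated controls on a 0–100 scale (0 no effect, 100 complete control).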

wheat = assay: Test A pre-/postemergence herbicide test; assay type: in vivo, Triticum aestivum; conditions: Postemergence; for Plant response rating, Wheat: 125 g ai/ha, 0 to 100 scale, 0 is no effect, 100 is complete control; for Wheat plant response rating (0 to 100 scale, 0 is no effect, 100 is complete control): 500 g ai/ha
Procedure, shortened: as §1

galium = assay: Test A postemergence herbicide test; assay type: in vivo, Galium aparine; conditions: for Plant response rating, Galium: 125 g ai/ha, 0 to 100 scale, 0 is no effect, 100 is complete control; for Galium plant response rating (0 to 100 scale, 0 is no effect, 100 is complete control): 500 g ai/ha
Procedure, shortened: as §3

barnyardgrass [1] = assay: Test A pre-/postemergence herbicide test; assay type: in vivo, Echinochloa crus-galli; conditions: for Plant response rating, Barnyardgrass: 0 to 100 scale
Procedure, shortened: as §1

giant foxtail = assay: Test A pre-/postemergence herbicide test; assay type: in vivo, Setaria faberii; conditions: for Plant response rating, Foxtail, Giant: 0 to 100 scale
Procedure, shortened: as §1

barnyardgrass [2] = assay: Test B flooded paddy test; assay type: in vivo, Echinochloa crus-galli; conditions: Flood, scale of 0 to 100 where 0 is no effect and 100 is complete control
Procedure, shortened: as §2

sedge, umbrella = assay: Test B flooded paddy test; assay type: in vivo, Cyperus difformis; conditions: Flood, scale of 0 to 100 where 0 is no effect and 100 is complete control
Procedure, shortened: as §2

ducksalad = assay: Test B flooded paddy test; assay type: in vivo, Heteranthera limosa; conditions: Flood, scale of 0 to 100 where 0 is no effect and 100 is complete control
Procedure, shortened: as §2

pigweed = assay: Test A pre-/postemergence herbicide test; assay type: in vivo, Amaranthus retroflexus; conditions: for Plant response rating, Pigweed: 0 to 100 scale
Procedure, shortened: as §1

[3] = 125 g ai/ha, visual rating, 0 no effect, 100 complete control, approximately 10 days, preemergence
[4] = Postemergence, 125 g ai/ha, 0 is no effect, 100 is complete control
[5] = preemergence, 500 g ai/ha, 0 is no effect and 100 is complete control

| SMILES | Plant response rating, Kochia (kochia; [3]) | Plant response rating, Kochia (kochia; [4]) | Kochia plant response rating (0 to 100 scale, 0 is no effect, 100 is complete control) (kochia; Postemergence, 500 g ai/ha) | Plant response rating, Kochia (kochia; [5]) | Plant response rating, Ryegrass, Italian (ryegrass, Italian; [3]) | Plant response rating, Ryegrass, Italian (ryegrass, Italian; [4]) | Ryegrass, Italian plant response rating (0 to 100 scale, 0 is no effect, 100 is complete control) (ryegrass, Italian; Postemergence, 500 g ai/ha) | Plant response rating, Ryegrass, Italian (ryegrass, Italian; [5]) | Plant response rating, Corn (corn) | Corn plant response rating (0 to 100 scale, 0 is no effect, 100 is complete control) (corn) | Plant response rating, Ragweed (ragweed; [3]) | Plant response rating, Ragweed (ragweed; [4]) | Ragweed plant response rating (0 to 100 scale, 0 is no effect, 100 is complete control) (ragweed; Postemergence, 500 g ai/ha) | Plant response rating, Blackgrass (blackgrass) | Blackgrass plant response rating (0 to 100 scale, 0 is no effect, 100 is complete control) (blackgrass) | Plant response rating, Wheat (wheat) | Wheat plant response rating (0 to 100 scale, 0 is no effect, 100 is complete control) (wheat) | Plant response rating, Galium (galium) | Galium plant response rating (0 to 100 scale, 0 is no effect, 100 is complete control) (galium) | Plant response rating, Barnyardgrass (barnyardgrass [1]; [3]) | also measured |
| --- | --- | --- | --- | --- | --- | --- | --- | --- | --- | --- | --- | --- | --- | --- | --- | --- | --- | --- | --- | --- | --- |
| O=C1NCC(c2cccc(OC(F)F)c2)C1C(=O)Nc1ccccc1Cl (centres unmarked) [Compound 229] | 0 | 10 | 60 | 70 | 10 | 30 | 40 | 20 | 0 | 0 | 0 | 20 | 60 | 40 | 70 | 0 | 0 | 60 | 70 | 70 | Plant response rating, Rice (rice; 500 g ai/ha): 0; Plant response rating, Barnyardgrass (barnyardgrass [1]; [4]): 70; Barnyardgrass plant response rating (0 to 100 scale, 0 is no effect, 100 is complete control) (barnyardgrass [1]; Postemergence, 500 g ai/ha): 80; Plant response rating, Barnyardgrass (barnyardgrass [1]; [5]): 90; Plant response rating, Foxtail, Giant (giant foxtail; [3]): 90; Plant response rating, Foxtail, Giant (giant foxtail; [4]): 80; Foxtail, Giant plant response rating (0 to 100 scale, 0 is no effect, 100 is complete control) (giant foxtail; Postemergence, 500 g ai/ha): 90; Plant response rating, Foxtail, Giant (giant foxtail; [5]): 90; Plant response rating, Barnyardgrass (barnyardgrass [2]; 500 g ai/ha): 50; Plant response rating, Sedge, Umbrella (sedge, umbrella; 500 g ai/ha): 0; Plant response rating, Ducksalad (ducksalad; 500 g ai/ha): 100; Plant response rating, Pigweed (pigweed; [3]): 0; Plant response rating, Pigweed (pigweed; [4]): 0; Pigweed plant response rating (0 to 100 scale, 0 is no effect, 100 is complete control) (pigweed; Postemergence, 500 g ai/ha): 0; Plant response rating, Pigweed (pigweed; [5]): 0 |
| Cc1ccccc1NC(=O)C1C(=O)NCC1c1cccc(OC(F)F)c1 (centres unmarked) [Compound 230] | 0 | 0 | 40 | 30 | 0 | 0 | 20 | 30 | 20 | 40 | 0 | 0 | 30 | 20 | 50 | 20 | 20 | 20 | 50 | 30 | Plant response rating, Rice (rice; 500 g ai/ha): 0; Plant response rating, Ragweed (ragweed; [5]): 20; Plant response rating, Barnyardgrass (barnyardgrass [1]; [4]): 60; Barnyardgrass plant response rating (0 to 100 scale, 0 is no effect, 100 is complete control) (barnyardgrass [1]; Postemergence, 500 g ai/ha): 90; Plant response rating, Barnyardgrass (barnyardgrass [1]; [5]): 90; Plant response rating, Foxtail, Giant (giant foxtail; [3]): 90; Plant response rating, Foxtail, Giant (giant foxtail; [4]): 70; Foxtail, Giant plant response rating (0 to 100 scale, 0 is no effect, 100 is complete control) (giant foxtail; Postemergence, 500 g ai/ha): 90; Plant response rating, Foxtail, Giant (giant foxtail; [5]): 90; Plant response rating, Barnyardgrass (barnyardgrass [2]; 500 g ai/ha): 60; Plant response rating, Sedge, Umbrella (sedge, umbrella; 500 g ai/ha): 0; Plant response rating, Ducksalad (ducksalad; 500 g ai/ha): 75; Plant response rating, Pigweed (pigweed; [3]): 0; Plant response rating, Pigweed (pigweed; [4]): 0; Pigweed plant response rating (0 to 100 scale, 0 is no effect, 100 is complete control) (pigweed; Postemergence, 500 g ai/ha): 0; Plant response rating, Pigweed (pigweed; [5]): 20 |
| COc1ccc(C2CNC(=O)C2C(=O)Nc2cccc(F)c2F)cc1C(F)(F)F (centres unmarked) [Compound 234] | 20 | 0 | 30 | 50 | 30 | 20 | 30 | 30 | 0 | 60 | 0 | 0 | 0 | 0 | 30 | 0 | 40 | 30 | 50 | 60 | Plant response rating, Rice (rice; 1000 g ai/ha): 0; Plant response rating, Ragweed (ragweed; [5]): 20; Plant response rating, Barnyardgrass (barnyardgrass [1]; [4]): 60; Barnyardgrass plant response rating (0 to 100 scale, 0 is no effect, 100 is complete control) (barnyardgrass [1]; Postemergence, 500 g ai/ha): 90; Plant response rating, Barnyardgrass (barnyardgrass [1]; [5]): 90; Plant response rating, Foxtail, Giant (giant foxtail; [3]): 70; Plant response rating, Foxtail, Giant (giant foxtail; [4]): 40; Foxtail, Giant plant response rating (0 to 100 scale, 0 is no effect, 100 is complete control) (giant foxtail; Postemergence, 500 g ai/ha): 80; Plant response rating, Foxtail, Giant (giant foxtail; [5]): 90; Plant response rating, Barnyardgrass (barnyardgrass [2]; 1000 g ai/ha): 75; Plant response rating, Sedge, Umbrella (sedge, umbrella; 1000 g ai/ha): 0; Plant response rating, Ducksalad (ducksalad; 1000 g ai/ha): 85; Plant response rating, Pigweed (pigweed; [3]): 0; Plant response rating, Pigweed (pigweed; [4]): 0; Pigweed plant response rating (0 to 100 scale, 0 is no effect, 100 is complete control) (pigweed; Postemergence, 500 g ai/ha): 0; Plant response rating, Pigweed (pigweed; [5]): 20 |
